The source of these data is patent US20240383893A1, “Hydroxamic Acid Compound Having ENPP1 Inhibitory Activity and Use Thereof” (Haihe Biopharma Co., Ltd., priority 2021, published 2024).

The target in data set [1] is T1, ENPP1 (hENPP1-ECD-His) (Homo sapiens (Human), UniProt P22413).
Data set [2] in a line: Preliminary pharmacokinetic testing in ICR mice (gavage 5 mg/kg, intravenous 1 mg/kg). It is filed as in vivo. The following applies: plasma. As to the method: 1. 6 healthy ICR mice, male, weighing 30-35 g, were randomly divided into 2 groups with 3 mice in each group. The tested compound was administered by gavage (5 mg/kg) and intravenous injection (1 mg/kg), respectively:
Feeding uniformly 4 hours after administration.

Data set [3] addresses T1, ENPP1 (hENPP1-ECD-His). In words: biochemical.
Where [4] appears, read: male, mouse, oral administration (5 mg/kg).
Setting [5] is: male, mouse, oral administration (5 mg/kg), read-out: Cmax.

Read-outs that look alike come from different tables or passages of the source.

T1 sequence (P22413 98-925): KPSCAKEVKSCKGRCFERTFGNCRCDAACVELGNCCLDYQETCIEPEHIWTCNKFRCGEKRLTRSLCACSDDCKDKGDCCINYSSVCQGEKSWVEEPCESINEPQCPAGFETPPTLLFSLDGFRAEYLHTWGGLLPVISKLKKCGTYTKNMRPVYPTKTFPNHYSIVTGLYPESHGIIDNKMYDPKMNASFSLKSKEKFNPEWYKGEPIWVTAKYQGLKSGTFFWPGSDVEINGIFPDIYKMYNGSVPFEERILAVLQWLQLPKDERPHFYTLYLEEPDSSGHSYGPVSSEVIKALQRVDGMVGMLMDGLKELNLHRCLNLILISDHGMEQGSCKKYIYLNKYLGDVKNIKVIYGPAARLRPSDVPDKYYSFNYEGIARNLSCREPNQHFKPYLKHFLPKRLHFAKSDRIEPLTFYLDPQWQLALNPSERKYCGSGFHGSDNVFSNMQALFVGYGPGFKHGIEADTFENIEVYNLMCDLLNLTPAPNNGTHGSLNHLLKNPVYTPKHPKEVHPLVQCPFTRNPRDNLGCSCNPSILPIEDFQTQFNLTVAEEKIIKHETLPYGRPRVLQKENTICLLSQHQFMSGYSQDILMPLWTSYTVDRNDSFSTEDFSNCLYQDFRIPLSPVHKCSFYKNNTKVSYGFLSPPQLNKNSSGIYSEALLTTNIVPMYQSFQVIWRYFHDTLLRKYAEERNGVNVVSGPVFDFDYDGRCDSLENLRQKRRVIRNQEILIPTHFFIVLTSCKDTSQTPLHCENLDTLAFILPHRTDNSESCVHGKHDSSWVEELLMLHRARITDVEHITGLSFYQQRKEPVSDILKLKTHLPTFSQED

Turning to `Cn1ncc2c(Nc3ccc(C(C)(C)C(=O)NO)cc3)ncnc21` [Compound 68], 4.8 nM corresponded to half-maximal inhibition against ENPP1 (hENPP1-ECD-His) [1] (IC50). For the same molecule, in data set [2] (setting [4]), the exposure AUC(0-t) (as a rule, the area under the concentration-time curve up to a stated or last time point) turned out to be 161 ng·h/mL and the half-life (usually how long it takes for the measured level to halve) is 2.44 h. Moreover, the Cmax (as a rule, the peak of the concentration-time curve) in data set [2] (setting [5]) came to 244 ng/mL. The bioavailability in data set [2] (male, mouse, oral administration (5 mg/kg) vs intravenous (1 mg/kg), read-out: F %) turned out to be 20.2%.
For the molecule `COc1ccc2c(Oc3cnn(C(C)(C)C(=O)NO)c3)ccnc2n1` [Compound 155], on ENPP1 (hENPP1-ECD-His) [3], 28 nM corresponded to half-maximal inhibition (IC50). This lies in the double-digit nanomolar range.
With `CCOC(C(=O)NO)c1ccc(Oc2ccnc3nc(OC)ccc23)cc1` (stereo not drawn) [Compound 86], the IC50 (usually the midpoint of a concentration-inhibition curve) against ENPP1 (hENPP1-ECD-His) [3] came out at 3.7 nM.
The same measure, in the same setting: under `CC(C)C(C(=O)NO)c1ccc(Nc2ncnc3c2cnn3C)cc1` (stereo not drawn) [Compound 199] stands 317 nM; under `COc1ccc2c(Oc3ccc(C(F)C(=O)NO)cc3)ccnc2n1` (stereo not drawn) [Compound 43], 5.3 nM.
In data set [2] (setting [4]), `COc1ccc2c(Oc3ccc(CC(=O)NO)cc3)ccnc2n1` [Compound 2, N-hydroxy-2-(4-((7-methoxy-1,8-naphthylidin-4-yl)oxy)phenyl)acetamide] came in with an AUC(0-t) of 619 ng·h/mL. Further, the bioavailability in data set [2] (male, mouse, po, 5 mg/kg, read-out: oral bioavailability) is above 20%. Also, in data set [2] (oral administration (5 mg/kg)), the Cmax worked out at 736 ng/mL and the T1/2 was found to be 3.26 h.
In data set [2] (setting [4]), `COc1ccc2c(Oc3ccc(C(C)(C)C(=O)NO)cc3)ccnc2n1` [Compound 42] gave an AUC(0-t) of 887 ng·h/mL and a half-life of 1.3 h. Moreover, the Cmax in data set [2] (setting [5]) was 1490 ng/mL.
Turning to `COc1cc2nccc(Nc3cnn(C4(C(=O)NO)CCOCC4)c3)c2cn1` [Compound 183], at ENPP1 (hENPP1-ECD-His) [3], the half-inhibitory concentration (IC50) was determined as 6.8 nM.
Molecule `CNc1ccc2c(Oc3ccc(C(C)(C)C(=O)NO)cc3)ccnc2c1` [Compound 102] displayed an IC50 against ENPP1 (hENPP1-ECD-His) [3] of 389 nM.
In data set [2] (setting [4]), `COc1ccc2c(Oc3ccc(C4(C(=O)NO)CCOCC4)cc3)ccnc2n1` [Compound 107] had an AUC(0-t) of 463 ng·h/mL and a half-life of 2 h. Moreover, the Cmax in data set [2] (setting [5]) was determined as 640 ng/mL.
